Key:
[1] = tested on: plasma insulin concentration; assay: Effect of OXM on plasma insulin concentration of anesthetized rat; type: in vivo; conditions: anesthetized fasted male SD rats, cumulative administration via jugular vein, blood 5 minutes after each dose; FIG. 3
Method: Test Example 2 Effect of OXM on Plasma Insulin Concentration of Anesthetized Rat
Male SD rats (370 to 450 g) were bred with no feed for from 15 to 20 hours, and then Na pentobarbital (50 mg/kg) was intra-abdominally administered thereto. A blood-collecting cannula was inserted into the carotid artery of each rat. A dosed cannula was inserted into the jugular vein of each rat. About 600 μl of blood was collected from each rat before the administration of a test chemical, and 5 minutes after each administration of a varying dose of the said test chemical. OXM obtained in Example 2 was added to physiological saline solution to adjust concentration of 1 mg/ml. The said OXM solution was diluted with a physiological saline solution, the thus-diluted solution was accumulatively administered to each rat. The dose of the solution was 1 ml/kg. The collected blood was centrifuged, and its insulin concentration was measured according to the Insulin-EIA Test (Wako Pure Chemicals).

eel atrium = assay: Effect of OXM in eel atrium (isolated atrium, tension transducer); conditions: isolated eel atrium in Ringer's solution, varying OXM concentration
Method: Test Example 1 Effect of OXM in Eel Atrium
An atrium was taken out of an eel, and one end of said atrium was fixed to the bottom of syringe filled with 1.5 ml of Ringer's solution in which was introduced a mixed gas of oxygen and carbon dioxide (95:5), while the other end thereof was connected to a tension transducer (NEC) via a silk thread. 15 μl of an aqueous solution of OXM as diluted with distilled water to have a varying concentration was added to said Ringer's solution, whereupon the tension to be generated by the atrial contraction was measured through the tension transducer. OXM used herein was the product as produced in Example 2. During this measurement, the atrial rate was also counted.

H-HSQGTFTNDYSKYLETRRAQDFVQWLMNSKRSGGPT-OH [OXM]
dose at which plasma insulin concentration is increased [1]: ≥ 0.01 mg/kg | atrial systole (atrial tension) (eel atrium; FIG. 1): dose-dependently increases | atrial rate (eel atrium; FIG. 2): dose-dependently increases

Reference: patent US5858975A, “Oxyntomodulin peptide having cardiotonic activity and insulin release-bromating activity” (Kyowa Hakko Kogyo Co., Ltd., priority 1994, dated 1999)
